Where two headings read alike, the source gives them in different places. Residues, ends and D or L forms follow the SMILES beside them. No end group written: not given here.

For orientation: IC50 means the midpoint of a concentration-inhibition curve. As a reminder, the viability is a read-out of living cells in per cent, often relative to untreated cells.

The target in series [1] is T1, purified human GAPDH (Homo sapiens, UniProt P04406). Put plainly: Side effects: effect on GAPDH enzymatic activity (second screening B). The class given is biochemical. The settings on record: for 2nd. Screening Side effect Effect on GAPDH Activity (%) in vitro: 10 μM peptide, 0.01 μM GAPDH. The procedure:
(§1) As the second screening, A) the viability of PC12 cells in the presence of a peptide, which represented cytotoxicity, B) effects on the GAPDH enzymatic activity, which represented side effects, and C) effects on amyloid formation, which represented specificity, were each investigated.
A 10 μM peptide was added to 0.01 μM purified human GAPDH, and the enzymatic activity of GAPDH was measured in accordance with a method described in Patent Document 1.

The test system of another series is PC12 cells. The experiment in a line: Cytotoxicity: viability of PC12 cells in the presence of peptide (second screening A). The class given is cell-based. The settings on record: FIG. 7. The procedure: as §1
(§2) PC12 cells cultured to 80% confluence were cultured at 37° C. for 72 hours in the presence of 50 μM peptide, and the cell viability was measured in accordance with the conventional method.

The target in series [2] is T1, purified human GAPDH. Put plainly: GAPDH aggregation inhibitory activity (first screening, turbidity at 405 nm). The class given is biochemical. Particulars: for 1st. Screening Potency Inhibitory activity (%) (50 μM at 48 h) in vitro: 50 μM peptide, 5 μM GAPDH, 37° C. The procedure:
As the first screening, GAPDH aggregation inhibitory activities, which represents potency, were measured. According to a method described in Patent Document 1, a peptide was added to a solution in which 5 μM purified human GAPDH was dissolved in Buffer G2 so that, the concentration of the peptide was 50 μM, and then incubated at 37° C. for 48 hours. Then the aggregation inhibitory rate of GAPDH was measured using the turbidity (absorbance at 405 nm) of the solution.

The test system of a further series is Aβ40-treated PC12 cells. Put plainly: Cytoprotective effects on Aβ1-40 induced PC12 cell death (third screening). It counts as cell-based.
The target of the next series is T2, Aβ25-35 (Homo sapiens, UniProt P05067).
T2 construct: Aβ25-35
The experiment in a line: Specificity: effect on amyloid formation (second screening C, fluorescence). It counts as biochemical. The settings on record: 25 μM amyloid β, 37° C., 1 hour. The procedure:
as §1
A solution containing 25 μM […] was incubated at 37° C. for 1 hour, and formation of amyloid aggregates was evaluated using the fluorescence intensity from the solution in accordance with a method described in Patent Document 1.

Series [3] is described as follows: Cytotoxicity: viability of PC12 cells in the presence of peptide (second screening A). Particulars: rat, PC12 cells. The class given is cell-based. The procedure: as §1, §2
Series [4] has as its system Aβ1-40 induced PC12 cell death. Put plainly: Protective effects on amyloid β induced cell death in the presence of GAPDH-Seeds. Particulars: GAPDH-Seeds (1%), GAI-17 50 μM, FIG. 2. The class given is cell-based.
For the next series, the system named is stroke model mouse. The experiment in a line: Cerebroprotective effects in a stroke model (MCAO). It counts as in vivo. The settings on record: 60 nmol/mouse intraventricular, FIG. 4. The procedure:
To a stroke model mouse, 60 nmol/mouse of a peptide was intraventricularly administered, and the reduction in cerebral infarction volume and the improvement in neurological symptoms after 24 hours were determined. The stroke model mouse was prepared in accordance with a method by of Andrabi et al. (Andrabi et al., Nat Med., 2011, June; 17(6): 692-9). A mouse was maintained under the state of ischemia for 30 minutes, and then perfusion was re-started. The cerebral infarction volume was measured […] after ischemia started. Further, in accordance with the method by Andrabi et al. (supra), a neurological score was determined for neurological symptoms of the mouse to evaluate the improvement in neurological symptoms.

Where [5] appears, read: read-out: IC50 (MEAN ± S.E.) for the GAPDH aggregation inhibitory activity in vitro.

T1 sequence (P04406 whole entry): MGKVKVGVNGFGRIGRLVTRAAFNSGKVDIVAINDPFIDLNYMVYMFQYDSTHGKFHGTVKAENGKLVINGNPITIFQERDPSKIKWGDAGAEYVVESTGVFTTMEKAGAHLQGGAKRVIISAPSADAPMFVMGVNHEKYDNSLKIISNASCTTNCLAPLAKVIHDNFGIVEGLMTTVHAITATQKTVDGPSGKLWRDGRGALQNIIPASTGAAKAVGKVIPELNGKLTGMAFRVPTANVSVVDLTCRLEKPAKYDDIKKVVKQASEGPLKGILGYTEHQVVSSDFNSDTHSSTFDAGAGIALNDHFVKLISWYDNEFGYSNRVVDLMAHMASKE

Take `C[C@@H](O)CNC(=O)[C@H](CS)NCCCO` [TN-101]: the “GAPDH enzymatic activity in the second screening” value at purified human GAPDH [1] (FIG. 7) was “uninhibited GAPDH enzymatic activity”. Besides, the “cytotoxicity in the second screening, compared with lead compound” value in the series on PC12 cells is on record as “comparable with or smaller than those of the lead compound”. Further, the “aggregation inhibitory activity in the first screening, compared with lead compound” value on purified human GAPDH [2] (FIG. 6) is on record as “superior to that of the lead compound”. The IC50 at purified human GAPDH [2] (setting [5]) worked out at 900 ± 110 nM.

“SNASCTTNAL [GAI-1, SNASCTTNAL, reference compound]”: the “3rd. Screening Effectiveness Cytoprotection (%) in Aβ40-treated PC12 cells” value in the series with Aβ40-treated PC12 cells came out at 48.0 ± 3.85%. The “2nd. Screening Specificity Effect on Aβ25-35 amyloidogenesis (%) in vitro” value at Aβ25-35 was 103 ± 9.94%. Moreover, the “2nd. Screening Side effect Effect on GAPDH Activity (%) in vitro” value at purified human GAPDH [1] stood at 105 ± 1.80%. The viability at 72 h, 50 µM in series [3] (50 μM peptide, 37° C., 72 hours, read-out: 2nd. Screening Cytotoxicity Cell viability (%) in PC12 cells) worked out at 104 ± 1.37%. Moreover, on purified human GAPDH [2], the IC50 amounted to 50000 ± 200 nM and the “1st. Screening Potency Inhibitory activity (%) (50 μM at 48 h) in vitro” value is on record as 53.2 ± 1.73%.

As to `C[C@@H](O)[C@H](NC(=O)[C@H](CS)NC(=O)[C@@H](N)CO)C(=O)O` [GAI-17, SCT] (H-Ser-Cys-Thr-OH; N-terminus and C-terminus assumed), the “protective effects on amyloid β40 induced PC12 cell death” value in series [4] is given as “protective effects”. For the same molecule, the “3rd. Screening Effectiveness Cytoprotection (%) in Aβ40-treated PC12 cells” value in the series with Aβ40-treated PC12 cells was determined as 99.4 ± 1.21%. For the same molecule, the “2nd. Screening Specificity Effect on Aβ25-35 amyloidogenesis (%) in vitro” value at Aβ25-35 was 102 ± 6.39%. Also, the cerebral infarction volume entry in the series on stroke model mouse is “decrease cerebral infarction volume”. Further, in the series on stroke model mouse (after 24 hours), the neurological symptoms result was “improve neurological symptoms”. The “2nd. Screening Side effect Effect on GAPDH Activity (%) in vitro” value at purified human GAPDH [1] is given as 97.9 ± 0.72%. In addition, the viability at 72 h, 50 µM in series [3] amounted to 100 ± 0.76%. Besides, on purified human GAPDH [2], the “1st. Screening Potency Inhibitory activity (%) (50 μM at 48 h) in vitro” value turned out to be 97.7 ± 1.48%. Also, on purified human GAPDH [2] (setting [5]), the IC50 was determined as 1190 ± 150 nM.
